# Source: patent US10758513B2, “Modulators of mitochondrial protein import” (THE REGENTS OF THE UNIVERSITY OF CALIFORNIA, priority 2011, dated 2020)
# Key:
# Tim9-Tim10 complex = assay: Crosslinking and immunoprecipitation of AAC with Tim9; format: biochemical, yeast; settings: 25 μM MitoBloCK-1; BMH crosslinker
# Method: Crosslinking and immunoprecipitation experiments were derived from procedures previously utilized (3) with the inclusion of MitoBloCK-1 or DMSO. Following import, a portion of the reaction was subjected to crosslinking with 0.5 mM bis-maleimidohexane (BMH) for 30 minutes on ice. After quenching crosslinking reactions with 1 mM β-mercaptoethanol, a fraction of each sample was subjected to immunoprecipitation with polyclonal antibodies against either Tim9, Tom22, or Tom40. For each immunoprecipitation, 20 μL of antisera was bound to […], of protein A-sepharose slurry according to established protocols (Murphy M P, et al., (2001), Mol Cell Biol 21:6132-6138).
# mouse liver mitochondria = assay: Import of radiolabeled precursors into isolated mouse liver mitochondria; format: biochemical; set-up: import of AAC: dose or concentration left out as unconfirmed
# Method: Mitochondria were purified from yeast cells grown in YPEG or selective SEG medium as described in previous studies (Glick B S, Pon L A (1995). Methods Enzymol 260:213-223). Yeast cultures were kept at a constant 25° C. with vigorous shaking during growth. After concentration was measured by BCA assay, mitochondria were stored in 25 mg/ml aliquots at −80° C. Mammalian mitochondria were isolated from 2-4 freshly excised mouse livers by differential centrifugation. Briefly, isolated livers were washed 3× with cold PBS and then suspended in 4-5 mL isolation buffer (70 mM Sucrose, 220 mM mannitol, 2rnM HEPES-KOH, pH 7.4) per gram of tissue. Livers were first chopped into small pieces and then dounced 5× using a teflon dounce. Homogenized material was then centrifuged at 1,000 RPM for […] in a clinical centrifuge and supernatants were transferred to fresh tubes. Centrifugation at 1,000 RPM for 10 min was then repeated and supernatants were transferred to microfuge tubes. Next, supernatant material was spun for 10 min at 800×g (this process was repeated a second time). The supernatants from these steps were subjected to a high-speed (12,000×g for 20 min) spin to pellet heavy membrane fractions. Pellets were washed in isolation buffer and spun again (12,000×g for 20 min). After the final centrifugation step, supernatants were discarded and heavy membrane fraction was resuspended in mammalian import buffer (250 mM sucrose, 5 mM magnesium acetate, 80 mM potassium acetate, 10 mM sodium succinate, 1 mM dithiothreitol, 0.1 mM ADP, 20 mM Hepes-KOH, pH 7.4) as described in Johnston A J, et al. (2002), J Biol Chem 277:42197-42204 and kept on ice. All subsequent imports were performed within 1 hour of isolation of mammalian mitochondria. Mitochondrial concentrations were determined by BCA assay.
# Prior to import into purified mitochondria, ^35S-methionine and cysteine labeled proteins were generated with TNT Quick Coupled Transcription/Translation kits (Promega) and plasmids carrying the gene of interest. Transcription of genes was driven by either a T7 or SP6 promoter. […]
# [1] = tested on: tim10-1 tim9S mitochondria; assay: Respiration (oxygen electrode) of tim10-1 tim9S mitochondria; format: biochemical, yeast; settings: NADH; 25 μM MitoBloCK-1; CCCP as control
# Method: Oxygen consumption of […] mitochondria was measured using methods previously described (8). Briefly, purified […] mitochondria aliquots (25 mg/mL) were thawed on ice and tested within 2 hours. A Clark-type oxygen electrode in a stirred, thermostatically controlled 1.5-ml chamber at 25° C. (Oxytherm; Hansatech) facilitated measurement. […] Consumption rate was monitored for approximately 2 min.
# [2] = tested on: tim12-1 mutant mitochondria; assay: In vitro import of AAC into tim12-1 mutant mitochondria; format: biochemical, yeast
# Method: Prior to import into purified mitochondria, ^35S-methionine and cysteine labeled proteins were generated with TNT Quick Coupled Transcription/Translation kits (Promega) and plasmids carrying the gene of interest. Transcription of genes was driven by either a T7 or SP6 promoter. Import reactions were conducted according to established methods. After frozen mitochondria aliquots were thawed and added to the import buffer at a final concentration of 100 μg/mL, drug or DMSO vehicle was added as indicated. A final vehicle concentration of 1% was used in all experiments. Following 15 minute incubation at 25° C., import reactions were initiated by the addition of […] of translation mix. Aliquots were removed at intervals during the reaction timecourse and import was terminated with either cold buffer, 25 μg/mL trypsin, or a combination of both. If trypsin was added to digest unimported precursor protein, soybean trypsin inhibitor (STI) was subsequently added in excess after 15 minute incubation on ice. After a final recovery of by centrifugation (8,000×g, 5 minutes), mitochondria were disrupted in Laemmli sample buffer. Imports of membrane proteins (AAC, PiC, Tom40, Tim22, and Tim23) included a carbonate extraction step to remove proteins that had not inserted into the membrane (Koehler C M, et al. (1998), Science 279:369-373). […]
# [3] = tested on: tim10-1 tim9S mitochondria; assay: Membrane potential with rhodamine 123; format: biochemical, yeast; settings: 25 μM MitoBloCK-1; CCCP as control
# Method: Membrane potential measurement assays were conducted with a SPEX spectrofluorometer system (HORIBA Jobin Yvon) with a magnetically stirred cuvette held at 25° C. The quenching of rhodamine 123 fluorescence (Em, =530 nm and Ex=485 nm) was used as previously described (9) to detect changes in mitochondrial membrane potential. Purified tim10-1 tim9S mitochondrial aliquots were thawed and resuspended in respiration buffer (0.65 M mannitol, 0.3 mM EGTA, 3 mm tris-phosphate, 10 mM tris-maleate, pH 6.75). Trials were started by adding 100 nM of rhodamine 123 to respiration buffer. After a period of signal stabilization, mitochondria were added to a concentration of 100 μg/mL. Either drug or DMSO was then added to a final vehicle concentration of 1% following the establishment of baseline quenched fluorescence. Finally, mitochondria were uncoupled with 3 μM CCCP.
# [4] = tested on: Δpdr5Δsnq2 strain overexpressing Erv1; assay: Yeast growth inhibition (MIC50), Δpdr5Δsnq2 strain overexpressing Erv1; format: cell-based; settings: Saccharomyces cerevisiae; Δpdr5Δsnq2 overexpressing Erv1 from high copy plasmid
# Method: For MIC50 analysis in the yeast strains, serial dilution of MitoBloCK-6 (0.5 μl) was pinned into assay plate wells containing 50 μl of yeast (Table 2) in rich ethanol-glycerol media (starting OD600=0.0002). Plates were then incubated at 25° C. in a humidified chamber for 40 hours. Each plate was shaken in a Beckman orbital shaker to resuspend settled cells, and the OD600 in each well was read by a Wallac Victor plate reader (Perkin Elmer).
# zebrafish embryos = assay: Zebrafish embryo development; format: in vivo
# Method: Zebrafish used for o-dianisidine staining of red blood cells in DMSO and MitoBloCK-6 treated fish were albino lines generated from crosses of TL and TU fish. Line AB were injected with the ALR morpholino. Lines were maintained in a 14-hr light/10-hr dark cycle and mated for one hour to obtain synchronized embryonic development. […] Following treatment, embryos were imaged using a Leica MZ16F fluorescent stereoscope (TexasRed filter set) at 5× magnification. […] Embryos were allowed to mature to 2 dpf and then imaged like the MitoBloCK-6 treated embryos; embryos were imaged at day 2 because of concerns with morpholino dilution. Images were resized to 300 dpi without resampling using Adobe Photoshop software.
Structure (SMILES),crosslinked Tim9-AAC product after immunoprecipitation (Tim9-Tim10 complex),import of AAC (mouse liver mitochondria),import of Hsp60 (mouse liver mitochondria),import of Su9-DHFR (mouse liver mitochondria),rate of respiration [1],import of AAC into tim12-1 mutant mitochondria [2],rhodamine 123 fluorescence (membrane potential) [3],MIC50 [4] [µM],toxicity to fish (zebrafish embryos; concentrations higher than 2.5 μM),decreased heart rate (zebrafish embryos; embryos treated with MitoBloCK-6 or ALR morpholino) [%]
NC(=S)N/N=C/c1c(O)c(Br)cc2oc3c(c12)CCCC3 [MitoBloCK-1],decreased,inhibited,not altered,not altered,did not significantly alter the rate of respiration,did not inhibit the import of AAC,did not change,–,–,–
Oc1c(Cl)cc(Cl)cc1/C=N/c1ccc(Nc2ccccc2)cc1 [MitoBloCK-6],–,–,–,–,–,–,–,28.3,toxic to the fish,50
